The values below come from patent US20050136492A1, “Affinity labeling of enzymes for detection of enzyme activity level in living cells” (priority 2001, published 2005).

Assay [1] concerns HL-60 cells. The experiment in a line: Pretreatment of HL-60 cells with unlabeled protease inhibitors during CPT induction of apoptosis; subsequent binding of FAM-VAD-FMK, FFCK or FLCK measured by LSC. The assay is classed as cell-based, Human. As to conditions: HL-60, 0.15 μM CPT 3 h, pretreatment with unlabeled inhibitor (Z-VAD-FMK 50 μM); probe 10 μM; mean ± SE of three experiments. On the procedure:
(§1) Preparation of reagents: Fluorescent inhibitors of serine proteases (FLISP) reagents, 5(6)-Carboxyfluoresceinyl-L-phenylalanylchloromethyl ketone (FFCK) and 5(6)-carboxyfluoresceinyl-L-leucylchloromethyl ketone (FLCK) were dissolved initially in dimethyl sulfoxide (DMSO; Sigma) to yield a 10 mM concentration. Aliquots were made from this stock solution and stored frozen at −20° C. protected from light. This reagent stock was then diluted directly into the cell culture media to give a 1× working reagent concentration of 10 μM. Dilution of the reagent into aqueous (cell culture) media is done just prior to cell exposure to preserve the labile chloromethyl ketone reactivity of FLISP reagent.
Fluorescent inhibitors of caspases (FLICA) reagents, namely the fluorescein labeled VAD-FMK (FAM-VAD-FMK) and sulforhodamine labeled VAD-FMK (SR-VAD-FMK) (Immunochemistry Technologies; Bloomington, Minn.) were both designed to detect the presence of active caspases within apoptotic cells. These inhibitors were dissolved in DMSO to obtain a 150× concentrated stock solution. Aliquots of these solutions were stored at −20° C. in the dark. […]
Cell staining and fluorescence measurement by LSC: The HL-60 cells from the untreated or CPT treated cultures were centrifuged (200 g, 5 min) and resuspended in PBS at approximately 10^4 cells per 5 mL volume. […]

Assay [2] deals with HL-60 cells. The experiment in a line: Labeling of CPT-treated HL-60 cells with FLISP (FFCK, FLCK) and FLICA (FAM-VAD-FMK, SR-VAD-FMK) reagents, by LSC or fluorescence microscopy. The assay is classed as cell-based, Human. As to conditions: for binding of the ligand by cells treated with CPT vs untreated (control) cells: HL-60, 3 h CPT, combined with PI; for fluorescence of labeled cells (appearance): dual labeling with SR-VAD-FMK, CPT-treated HL-60, microscopy/LSC imaging. The method, then:
as §1
Fluorescent inhibitors of caspases (FLICA) reagents, namely the fluorescein labeled VAD-FMK (FAM-VAD-FMK) and sulforhodamine labeled VAD-FMK (SR-VAD-FMK) (Immunochemistry Technologies; Bloomington, Minn.) were both designed to detect the presence of active caspases within apoptotic cells. These inhibitors were dissolved in DMSO to obtain a 150× concentrated stock solution. Aliquots of these solutions were stored at −20° C. in the dark. Prior to use, a 30× working solution of either FAM-VAD-FMK or SR-VAD-FMK was prepared by diluting the stock solution 1:5 in phosphate buffered saline (PBS) and mixing until the solution become clear. The 30× working solution was diluted 1:30 cell culture media to give a final 1× working reagent concentration of 10 μM.
Cells: Human promyelocytic leukemic HL-60 cells were obtained from American Type Culture Collection (ATCC; Rockville, Md.). They were cultured in 25 mL FALCON flasks (Becton Dickinson Co., Franklin Lakes, N.J.) using RPMI 1640 supplemented with 10% fetal calf serum, 100 units/mL penicillin, […] and 2 mM L-glutamine (all from Gibco/BRL Life Technologies, Inc., Grand Island, N.Y.) in a humidified incubator set to maintain 37.5° C. and 5% CO2 as previously described (Bedner et al., Exp Cell Res., 2000, 259:308-313; Smolewski et al., Cytometry, 2001, 44:73-82). At the onset of experiments, there were fewer than 5×10^5 cells/ml in culture. To induce apoptosis the cells were treated with 0.15 μM DNA topoisomerase I inhibitor camptothecin (CPT; Sigma Chemical Co., St. Louis, Mo.) for 3 hours.
Cell staining and fluorescence measurement by LSC: The HL-60 cells from the untreated or CPT treated cultures were centrifuged (200 g, 5 min) and resuspended in PBS at approximately 10^4 cells per 5 mL volume. Cells were then attached electrostatically to microscope slides as described before (Bedner et al., Exp Cell Res., 2000, 259:308-313; Smolewski et al., Cytometry, 2001, 44:73-82). The attachment was achieved by the incubation (15 min) of cells suspended in serum-free PBS in shallow (<1 mm depth; 1.5×1.5 cm) wells on horizontally placed microscope slides that were rinsed in 100% ethanol and air dried prior to use, at 100% humidity. The electrostatically attached cells remain viable, exclude such dyes as trypan blue and propidium iodide (PI), and have unchanged morphology for several hours (Bedner et al., Exp Cell Res., 2000, 259:308-313). After the cells became attached, PBS was removed from the wells and was replaced by 150 μL of the culture medium containing 10% FCS. FLISP staining solutions were prepared by diluting 5 μL of the 10 mM FFCK or FLCK stock solution into 5 mL of culture medium yielding a final FLISP concentration 10 μM. […]

Where “and” joins values, the source holds several entries; their conditions need not be identical. Identical values can stand only once.

As to “N-tosyl-L-phenylalanine chloromethyl ketone [TPCK]”, in assay [1], the “percent decrease in frequency of FLCK labeled cells vs cells treated with CPT without unlabeled inhibitor” value was 38.9% and 38.9 ± 1.7%.
As to “5(6)-Carboxyfluorescyl-L-leucylchloromethyl ketone [FLCK]”, in assay [2], the “binding of the ligand by cells treated with CPT vs untreated (control) cells” value is recorded as “induced binding” and the “fluorescence of labeled cells (appearance)” value is recorded as “faint”. Moreover, the “greater fluorescence intensity of FLCK labeled cells compared to cells labeled with FFCK” value in assay [2] (identical settings of photomultiplier sensitivity) is listed as “approximately 60%”.
With “5(6)-Carboxyfluoresceinyl-L-phenylalanylchloromethyl ketone [FFCK]”, in assay [2], the “binding of the ligand by cells treated with CPT vs untreated (control) cells” value is “induced binding” and the “fluorescence of labeled cells (appearance)” value is listed as “strong”.
